Results published in the NIST ThermoML archive (doi:10.1021/je0499364).

What was measured:
[1] = Crystal
[2] = Molar enthalpy of transition or fusion; conditions: Crystal
[3] = molar heat capacity at constant pressure; conditions: 101.33 kPa

CCCCCCCCCCCCCCCCCCC(=O)OC [methyl nonadecanoate]
Conditions | Molar enthalpy of transition or fusion [kcal/mol] | Triple point temperature [K]
[1] | – | 311.49
[2] | 16.95 | –

[3]
Conditions | molar heat capacity at constant pressure [J/K/mol]
5 K, Crystal | 0.69
10 K, Crystal | 5.1
20 K, Crystal | 26.27
30 K, Crystal | 55.13
40 K, Crystal | 87.37
50 K, Crystal | 117.8
60 K, Crystal | 143.77
70 K, Crystal | 168.98
80 K, Crystal | 190.79
90 K, Crystal | 210.18
100 K, Crystal | 228.66
110 K, Crystal | 244.31
120 K, Crystal | 259.07
130 K, Crystal | 273.22
140 K, Crystal | 286.84
150 K, Crystal | 300.17
160 K, Crystal | 313.53
170 K, Crystal | 327.31
180 K, Crystal | 339.52
190 K, Crystal | 353.2
200 K, Crystal | 367.35
210 K, Crystal | 380.94
220 K, Crystal | 397.52
230 K, Crystal | 413.93
240 K, Crystal | 432.32
250 K, Crystal | 450.65
260 K, Crystal | 469.65
270 K, Crystal | 491.94
280 K, Crystal | 518.01
290 K, Crystal | 549.43
300 K, Crystal | 586.63
320 K, Liquid | 691.61
330 K, Liquid | 677.17
340 K, Liquid | 684.76
350 K, Liquid | 693.78

CCCCCCCCCC(=O)OC [methyl decanoate]
Conditions | Molar enthalpy of transition or fusion [kcal/mol] | Triple point temperature [K]
[1] | – | 260.33
[2] | 8.58 | –

[3]
Conditions | molar heat capacity at constant pressure [J/K/mol]
5 K, Crystal | 0.45
10 K, Crystal | 3.7
20 K, Crystal | 20.01
30 K, Crystal | 37.87
40 K, Crystal | 57.28
50 K, Crystal | 75.63
60 K, Crystal | 91.46
70 K, Crystal | 105.95
80 K, Crystal | 119.09
90 K, Crystal | 131.08
100 K, Crystal | 141.62
110 K, Crystal | 151.65
120 K, Crystal | 160.63
130 K, Crystal | 169.23
140 K, Crystal | 177.35
150 K, Crystal | 185.25
160 K, Crystal | 192.99
170 K, Crystal | 200.77
180 K, Crystal | 209.01
190 K, Crystal | 217.44
200 K, Crystal | 226.26
210 K, Crystal | 234.91
220 K, Crystal | 245.06
230 K, Crystal | 256.05
240 K, Crystal | 269.17
250 K, Crystal | 300.63
270 K, Liquid | 361.09
280 K, Liquid | 368.72
290 K, Liquid | 372.12
300 K, Liquid | 376.14
310 K, Liquid | 380.31
320 K, Liquid | 385.19
330 K, Liquid | 389.78
340 K, Liquid | 394.95
350 K, Liquid | 400.2

CCCCCCCC(=O)OC [methyl octanoate]
Conditions | Triple point temperature [K]
[1] | 236.2

Conditions | Molar enthalpy of transition or fusion [kcal/mol]
[2], Adiabatic calorimetry | 6.13

[3]
Conditions | molar heat capacity at constant pressure [J/K/mol]
5 K, Crystal | 0.38
10 K, Crystal | 3.03
20 K, Crystal | 18.19
30 K, Crystal | 33.71
40 K, Crystal | 50.53
50 K, Crystal | 66.36
60 K, Crystal | 79.75
70 K, Crystal | 92.33
80 K, Crystal | 103.39
90 K, Crystal | 113.4
100 K, Crystal | 122.25
110 K, Crystal | 131.1
120 K, Crystal | 138.74
130 K, Crystal | 146.18
140 K, Crystal | 153.44
150 K, Crystal | 160.31
160 K, Crystal | 167.13
170 K, Crystal | 174.18
180 K, Crystal | 181.34
190 K, Crystal | 188.84
200 K, Crystal | 196.94
210 K, Crystal | 205.99
220 K, Crystal | 217.68
230 K, Crystal | 242.75
240 K, Liquid | 301.67
250 K, Liquid | 301.39
260 K, Liquid | 303.17
270 K, Liquid | 305.83
280 K, Liquid | 308.83
290 K, Liquid | 312.81
300 K, Liquid | 316.17
310 K, Liquid | 320.13
320 K, Liquid | 323.19
330 K, Liquid | 327.93
340 K, Liquid | 332.21
350 K, Liquid | 336.19
